This passage reports viability, T/C and IC50 results from PubChem BioAssay AID2060910 (Molecular Pharmacology Branch, DTP, NCI, 2025).

This test deals with 242566-281-R-J2-PDC complex spheroid viability. The experiment in a line: Anticancer human tumor 242566-281-R-J2-PDC patient-derived pancreatic carcinoma cell line growth inhibition [RAS]. Particulars: for viability, T/C: stronger effect = lower value. The text has this: RAS pathway inhibitors in Combinations in Complex Spheroids
A high-throughput screen of multi-cell type tumor spheroids was designed to identify active combinations of RAS pathway inhibitors and targeted small molecules. Complex spheroids include a stromal component modeled by human endothelial cells (HUVEC) and fibroblasts modeled by human mesenchymal stem cells (MSCs). The concentration ranges selected for each drug and investigational agent were based upon clinically achievable concentrations if the clinical Cmax of the agent was known.
Compounds. The drugs and investigational agents: abemaciclib (NSC768073), cobimetinib (NSC768068), divarasib (GDC6063, NSC841802), docetaxel (NSC628503), GDC-1971 (RLY-1971, NSC841576), gemcitabine (NSC613327), inavolisib (NSC800729), ipatasertib (NSC767898), KB-0742 (NSC834161), MRTX-1133 (NSC836407), osimertinib (NSC779217), RMC-4630 (NSC839698), RMC-6236 (NSC851965), RMC-6291 (NSC852671), Ro-3306 (NSC812927), sapanisertib (NSC764658), SN-38 (NSC673596), staurosporine (NSC755774), SY5609 (NSC837396), and tovorafenib (DAY101, NSC766906), were obtained from the National Cancer Institute (NCI) Developmental Therapeutics Program Chemical Repository. The FDA-approved anticancer drug set is available from the NCI Developmental Therapeutics Program. […] The stock solutions were prepared in dimethyl sulfoxide (DMSO, Sigma-Aldrich, St. Louis, MO, cat. D2650) at 800-fold the tested concentration and stored at -70 degrees C prior to their use. All drugs and investigational agents were tested over a range starting from a high concentration at or near the clinical Cmax and decreasing in half-log increments. If the clinical Cmax for an agent had not been determined, the highest concentration tested was 10 microM.
Cell Culture. All cells were maintained in an incubator at 37 degrees C and 5% CO2 with 95% humidity. The PDC lines were cultured according to standard operating procedures established by the NCI PDMR. All PDCs were thawed and cultured in Matrigel-coated flasks prepared with a working solution of 1X Ham's F-12 nutrient mix, without supplementation (Invitrogen, Waltham, MA, cat. 11765054), 100 U/mL penicillin-streptomycin (Invitrogen, cat. 15140122), and 2.5% Matrigel (Corning Inc., Corning, NY, cat. 354248) for the first three passages. The 362531-283-R-J2-PDC and 782815-120-R-J1-PDC lines were cultured in 6C/Colon 1B media, which includes advanced DMEM/F-12 (Thermo Fisher Scientific, cat. 12634028), 10 mM HEPES (Thermo Fisher Scientific, cat. 15630080), 1X GlutaMAX supplement (Thermo Fisher Scientific, cat. 35050061), 0.1 mg/mL primocin (InvivoGen, San Diego, CA, cat. ant-pm-2), 10% defined fetal bovine serum, heat inactivated (HyClone Laboratories Inc., Logan, UT, cat. SH30070.03HI), 50% L-WRN conditioned media (ATCC, cat. CRL-3276), 1.25 mM N-Acetyl-L-cysteine (Sigma-Aldrich, cat. A9165), 10 mM nicotinamide (Sigma-Aldrich, cat. N0636), 1X B-27 supplement (Thermo Fisher Scientific, cat. 17504044), 1X N-2 supplement (Thermo Fisher Scientific, cat. 17502048), 50 ng/mL human EGF (Thermo Fisher Scientific, cat. PHG0311), and 10 microM Y-27632 dihydrochloride (Tocris Bioscience, cat. 1254). The K12877-001-R-J1-PDC line was cultured in 6I media, which includes all 6C/Colon 1B media plus 10 ng/mL human FGF-10 (PeproTech, cat. 100-26), 1 ng/mL human FGF-2 (PeproTech, cat. 100-18B), 1 µM prostaglandin E2 (Tocris Bioscience, cat. 2296), […] hydrocortisone (Sigma-Aldrich, cat. H4001), and […] bovine insulin (Sigma-Aldrich, cat. I6634). The K86415-001-R-J1-PDC line was cultured in 6D media, which includes all 6C/Colon 1B media components minus the L-WRN conditioned media. The 485176-168-R4-J1-PDC was cultured in PANC media, which includes all 6C/Colon 1B media plus 100 ng/mL human FGF-10 (PeproTech, cat. 100-26), 500 nM SB-431542 (Selleckchem, cat. S1067), and 10 nM gastrin (Tocris Bioscience, cat. 3006). […]

SMILES strings stand for the structures.
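Further: spheroids exposed to compound for 7 days before readout.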
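Wherever viability, T/C is given: 100% = DMSO vehicle control wells.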

On to `CCC(CC)c1cc(NC2CCC(N)C2)n2nccc2n1` (stereo not drawn), for which the viability, T/C is 105% [middle of 4 runs] (compound 0.0316 µM); 119% [middle of 4 runs] (compound 0.1 µM); 105% [middle of 4 runs] (compound 0.316 µM); 114% [middle of 4 runs] (compound 1 µM); 2.75% [middle of 4 runs] (compound 10 µM). In addition, the IC50 (curve of compound) was 4.51 µM [middle of 4 runs].
In the case of `C[C@@H](NC(=O)c1ncnc(N)c1Cl)c1ncc(C(=O)Nc2cc(C(F)(F)F)c(Cl)cn2)s1` + C#Cc1c(F)ccc2cc(O)cc(-c3ncc4c(N5CC6CCC(C5)N6)nc(OCC56CCCN5CC(F)C6)nc4c3F)c12, the IC50 by setting is: (curve of first compound, second compound 0.0316 µM) over 10 µM; (curve of first compound, second compound 0.1 µM) over 10 µM; (curve of first compound, second compound 0.316 µM) over 10 µM; (curve of first compound, second compound 1 µM) over 10 µM; (curve of first compound, second compound 3.16 µM) over 10 µM; (curve of first compound, second compound 10 µM) over 10 µM. Further, the viability, T/C by setting is: (second compound 0.0316 µM, first compound 0.0316 µM) 93.3%; (second compound 0.0316 µM, first compound 0.1 µM) 136%; (second compound 0.0316 µM, first compound 0.316 µM) 93.4%; (second compound 0.0316 µM, first compound 1 µM) 85.8%; (second compound 0.0316 µM, first compound 3.16 µM) 97.9%; (second compound 0.0316 µM, first compound 10 µM) 95.3%. For the same compound, the viability, T/C (second compound 0.1 µM, first compound 0.0316 µM) is 91.3%; the viability, T/C (second compound 0.1 µM, first compound 0.1 µM) is 102%; the viability, T/C (second compound 0.1 µM, first compound 0.316 µM) was 90.9%; the viability, T/C (second compound 0.1 µM, first compound 1 µM) was 88.4%; the viability, T/C (second compound 0.1 µM, first compound 3.16 µM) was 69.9%; the viability, T/C (second compound 0.1 µM, first compound 10 µM) is 88.8%. Besides, the viability, T/C runs as follows: (second compound 0.316 µM, first compound 0.0316 µM) 75.9%; (second compound 0.316 µM, first compound 0.1 µM) 84.1%; (second compound 0.316 µM, first compound 0.316 µM) 60.8%; (second compound 0.316 µM, first compound 1 µM) 75.4%; (second compound 0.316 µM, first compound 3.16 µM) 68.1%; (second compound 0.316 µM, first compound 10 µM) 78.4%. In addition, the viability, T/C is, setting by setting: (second compound 1 µM, first compound 0.0316 µM) 67.2%; (second compound 1 µM, first compound 0.1 µM) 74.5%; (second compound 1 µM, first compound 0.316 µM) 66.6%; (second compound 1 µM, first compound 1 µM) 62.1%; (second compound 1 µM, first compound 3.16 µM) 64.2%; (second compound 1 µM, first compound 10 µM) 71.4%. The viability, T/C by setting is: (second compound 3.16 µM, first compound 0.0316 µM) 63.4%; (second compound 3.16 µM, first compound 0.1 µM) 66.7%; (second compound 3.16 µM, first compound 0.316 µM) 63.7%; (second compound 3.16 µM, first compound 1 µM) 53.9%; (second compound 3.16 µM, first compound 3.16 µM) 62.2%; (second compound 3.16 µM, first compound 10 µM) 66.2%. Moreover, the viability, T/C by setting is: (second compound 10 µM, first compound 0.0316 µM) 63.3%; (second compound 10 µM, first compound 0.1 µM) 64%; (second compound 10 µM, first compound 0.316 µM) 46.3%; (second compound 10 µM, first compound 1 µM) 55%; (second compound 10 µM, first compound 3.16 µM) 60.5%; (second compound 10 µM, first compound 10 µM) 63.8%.

What is called viability, T/C is the ratio of treated to control. Usually IC50 stands for the point on the concentration scale where inhibition reaches its midpoint.
